Laboratory results from patent US20150342847A1, “NOVEL DERIVATIVES OF SINAPINIC ACID AND THE COSMETIC OR PHARMACEUTICAL USES THEREOF” (BASF Beauty Care Solutions France SAS, priority 2012, published 2015).

How the values were obtained:
human tyrosinase = molecular target: T1, human tyrosinase (Homo sapiens, UniProt P14679); assay: Anti-human tyrosinase activity in normal human melanocytes (MBTH/L-Dopa, OD490); format: cell-based
T1 construct: endogenous in cells; host or cells: normal human melanocytes obtained from abdominal plasty
T1 sequence (P14679 19-529): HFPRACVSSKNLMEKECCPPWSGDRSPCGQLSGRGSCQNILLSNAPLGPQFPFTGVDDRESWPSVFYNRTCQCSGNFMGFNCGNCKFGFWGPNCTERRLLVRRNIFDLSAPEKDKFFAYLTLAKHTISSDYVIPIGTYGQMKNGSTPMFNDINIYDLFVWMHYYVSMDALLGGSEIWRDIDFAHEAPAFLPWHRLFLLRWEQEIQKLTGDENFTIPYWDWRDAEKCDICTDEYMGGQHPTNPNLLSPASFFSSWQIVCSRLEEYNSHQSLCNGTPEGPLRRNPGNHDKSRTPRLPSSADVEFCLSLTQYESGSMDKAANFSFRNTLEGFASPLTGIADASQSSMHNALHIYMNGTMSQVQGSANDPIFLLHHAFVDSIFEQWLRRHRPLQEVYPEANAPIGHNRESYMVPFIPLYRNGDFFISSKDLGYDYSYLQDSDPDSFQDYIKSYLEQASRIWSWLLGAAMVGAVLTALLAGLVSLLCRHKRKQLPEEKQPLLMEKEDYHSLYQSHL
Procedure: Study of the inhibition of tyrosinase by the hydroxytyrosol dihydrosinapate of the invention of formula (IIa), in comparison with the prior-art ferulic acid derivative, by quantitative analysis of the human tyrosinase activity of melanocytes cultured as a monolayer following application of the compound under test. Normal human melanocytes (obtained from abdominal plasty) are seeded in a 24-well plate at 80000 cells per well. They are cultured until confluence, and the compounds under test are applied in the culture media for 24 hours. After 24 hours, the media are removed and the melanocytes are detached by mechanical action. Extraction is carried out by thermal shock and then the supernatants are recovered and incubated with MBTH (methyl benzothiazolinone-hydrazone) (Sigma) and L-Dopa (Sigma). The optical density (OD) at 490 nm (OD490) is measured after 30 minutes of incubation, and the inhibition of tyrosinase is calculated according to the following formula: % inhibition=100−[100×(OD490 sample/level of proteins in sample)/(OD490 negative control/level of proteins in negative control)] The OD490 is therefore related to the level of protein, which is the measurement in each culture well. […] The results are presented as % inhibition of activity of tyrosinase, in Table 2.

melanocytes = assay: Cytotoxicity, MTT cell viability on melanocytes; format: cell-based; conditions: for Percentage cell viability, Mean: MTT
Procedure: Study of cell viability following application of the hydroxytyrosol dihydrosinapate of the invention of formula (IIa) to keratinocytes or melanocytes.
The cells (keratinocytes or melanocytes) were cultured in a 96-well plate at 37° C. under 5% CO2 in an appropriate medium until confluence. The medium was withdrawn and then an amount of 200 μL of a 0.5 mg/mL MTT solution was added. The plates were then incubated at 37° C. for 3 hours, after which the MTT solution was withdrawn from each well and replaced with DMSO. The plates were agitated for 15 minutes, and the optical density was measured at 550 nm.
The negative cytotoxicity control is PBS. The positive cytotoxicity control is 0.25% SDS. 0.1% DMSO was used as control.

COc1cc(CCC(=O)OCCc2ccc(O)c(O)c2)cc(OC)c1O [Hydroxytyrosol dihydrosinapate (IIa), hydroxytyrosol dihydrosinapate]
inhibition of the activity of human tyrosinase (in words) (human tyrosinase; human tyrosinase in the melanocytes): does not inhibit the activity of the human tyrosinase | inhibition at 1 µM (human tyrosinase; normal human melanocytes, 1 μM, 24 hours, read-out: % inhibition of activity of tyrosinase +/− standard deviation): -5.85% | inhibition at 10 µM (human tyrosinase; normal human melanocytes, 10 μM, 24 hours, read-out: % inhibition of activity of tyrosinase +/− standard deviation): -4.53% | inhibition at 100 µM (human tyrosinase; normal human melanocytes, 100 μM, 24 hours, read-out: % inhibition of activity of tyrosinase +/− standard deviation): -36.6% | Percentage cell viability, Mean (melanocytes; 1 μM): 109.67% | Percentage cell viability, Mean (melanocytes; 10 μM): 107.53% | Percentage cell viability, Mean (melanocytes; 100 μM): 111.30% | cytotoxicity (in words) (melanocytes; 10^−6, 10^−5 and 10^−4 M, tolerated threshold 75% viability): not cytotoxic
